Results from patent US20100209508A1, “Substituted Phenylphosphates as Mutual Prodrugs of Steroids and ß-Agonists for the Treatment of Title Pulmonary Inflammation and Bronchoconstriction” (CORUS PHARMA, INC., priority 2005, published 2010).
Read-outs that look alike come from different tables or passages of the source.

Key:
alkaline phosphatase = assay: Conversion of mutual prodrugs after exposure to alkaline phosphatase (ALP experiment); settings: for Steroid 13 Concentration / Salmeterol Concentration: mutual prodrug 16 + alkaline phosphatase;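 on all read-outs here: mutual prodrug and its released products quantified by LCMS over time in buffer with alkaline phosphatase, compared against enzyme-free control buffer, incubations running 25–50 hours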
Protocol: Reaction and control solutions were prepared by adding a 500 μL aliquot of a ˜200 ng/μl solution in 1:1 acetonitrile/water of and the compound 16 (or alternatively 17) to 500 μl of a pH 7.4 buffer solution, containing 5 mM tris(hydroxymethyl)aminomethane, 1 mM ZnCl2, 1 mM MgCl2. For the reaction solutions, the buffer also contained approximately 600 ng/μl of alkaline phosphatase (Sigma-Aldrich) whereas the control buffer solutions contained no enzyme. The reaction and control solutions were incubated at 37° C. for 25 to 50 hours. The solutions were analyzed periodically for the respective mutual prodrug and reaction products by LCMS.
The concentration of the alkaline phosphatase in the reaction buffer was ˜600 ng/μL (the enzyme activity of the solution was not determined).
The concentration of the alkaline phosphatase in the buffer added to the stock solution was ˜600 ng/μl (the enzyme activity of the solution was not determined).

cytokine release = assay: Panel of standard cell-based in vitro assays evaluating cytokine release inhibition; settings: prodrugs compared to the steroid drugs (Examples 27 and 62, respectively)
Protocol: The selected compounds of the invention were tested in a panel of standard, cell-based in vitro assays evaluating the cytokine release inhibition and thus the anti-inflammatory activity of a test article. Several potent steroid analogs were identified, namely compounds described in Examples 23, 27, 43, 59 and 62. […] Therefore by masking the pharmacological properties of a respective steroid the mutual prodrug mitigates the oropharyngeal side effects and confines the antiinflammatory activity of a steroid to the endobronchial space, where the lung enzymes (specifically alkaline phosphatase) release the pharmacologically active steroid (see Examples 141-143).

IL-1β = IL-1β secretion (h) (PBMC); type: cell-based; settings: Homo sapiens, LPS (1 μg/ml), 24 h/37° C., EIA
[1] = system: splenic lymphocytes isolated from C57BL/6 mice and CBA mice; assay: Immunosuppression ([3H]TMD incorporation in mouse splenic lymphocytes); type: cell-based; settings: "Not active" = less than 25% inhibition at 1000 nM
TNF-α = TNF-α secretion (h) (PBMC); type: cell-based, human; settings: LPS (1 μg/ml), 24 h/37° C., EIA, "Not active" = less than 25% inhibition at highest tested concentration 1000 nM; for IC50: read-out: TNF-α secretion IC50
[2] = Mus musculus, Splenic lymphocyte, read-out: Immunosuppresion IC50, mouse splenic lymphocytes, 72 h/37° C., [3H]TMD incorporation
[3] = read-out: Immunosuppresion IC50, mouse splenic lymphocytes, 72 h/37° C., [3H]TMD incorporation

Structure (SMILES) | anti-inflammatory activity (cytokine release inhibition), assessment in words (cytokine release) | IC50 (IL-1β) [µM] | IC50 [1, 2] [µM] | TNF-α secretion IC50 (TNF-α) | IC50 (TNF-α; Homo sapiens, 24 h) [µM] | also measured
CN1CCN(CC(=O)[C@@]23O[C@H](C4CCCCC4)O[C@@H]2C[C@H]2[C@@H]4CCC5=CC(=O)C=C[C@]5(C)[C@@]4(F)[C@@H](O)C[C@@]23C)CC1 [Example 27, 16,17-[(Cyclohexylmethylene)bis(oxy)]-9-fluoro-11-hydroxy-21-(4-methylpiperazyn-1-yl)-pregna-1,4-diene-3,20-dione[11β,16α(R)]] | potent | 0.036 | 0.012 | Not active |  | Steroid 13 Concentration (alkaline phosphatase; 0.00 Hours @ 37° C.): 0.0 nmol/mL; Steroid 13 Concentration (alkaline phosphatase; 0.59 Hours @ 37° C.): 1.6 nmol/mL; Steroid 13 Concentration (alkaline phosphatase; 1.19 Hours @ 37° C.): 4.1 nmol/mL; Steroid 13 Concentration (alkaline phosphatase; 2.96 Hours @ 37° C.): 15.3 nmol/mL; Steroid 13 Concentration (alkaline phosphatase; 3.56 Hours @ 37° C.): 20.2 nmol/mL; Steroid 13 Concentration (alkaline phosphatase; 4.15 Hours @ 37° C.): 21.6 nmol/mL; Steroid 13 Concentration (alkaline phosphatase; 10.67 Hours @ 37° C.): 49.5 nmol/mL; Steroid 13 Concentration (alkaline phosphatase; 15.41 Hours @ 37° C.): 54.6 nmol/mL; Steroid 13 Concentration (alkaline phosphatase; 19.56 Hours @ 37° C.): 62.9 nmol/mL; Steroid 13 Concentration (alkaline phosphatase; 24.30 Hours @ 37° C.): 67.3 nmol/mL; Steroid 13 Concentration (alkaline phosphatase; 30.82 Hours @ 37° C.): 69.3 nmol/mL; Steroid 13 Concentration (alkaline phosphatase; 34.97 Hours @ 37° C.): 66.5 nmol/mL
C[C@]12C=CC(=O)C=C1CC[C@H]1[C@@H]3C[C@H]4O[C@@H](C5CCCCC5)O[C@@]4(C(=O)Cn4ccnc4)[C@@]3(C)C[C@H](O)[C@@]12F [Example 45, 16,17-[(Cyclohexylmethylene)bis(oxy)]-9-fluoro-11-hydroxy-21-(imidazol-1-yl)-pregna-1,4-diene-3,20-dione[11β,16α(R)]] |  |  | > 1 | Not active |  | 
CN1CCN(CC(=O)[C@@]23O[C@H](C4CCCCC4)O[C@@H]2C[C@H]2[C@@H]4CCC5=CC(=O)C=C[C@]5(C)[C@H]4[C@@H](O)C[C@@]23C)CC1 [Example 26, 16,17-[(Cyclohexylmethylene)bis(oxy)]-11-hydroxy-21-(4-methylpiperazyn-1-yl)-pregna-1,4-diene-3,20-dione[11β,16α(R)]] |  | > 1 | 0.031 | Not active |  | 
C[C@]12C=CC(=O)C=C1CC[C@@H]1[C@@H]2[C@@H](O)C[C@@]2(C)[C@H]1C[C@H]1OC(c3cccnc3)O[C@]12C(=O)CO (stereo partly shown) [Example 59] | potent |  | 0.002 |  | 0.085 | 
CN1CCC(C2O[C@@H]3C[C@H]4[C@@H]5CCC6=CC(=O)C=C[C@]6(C)[C@@]5(F)[C@@H](O)C[C@]4(C)[C@]3(C(=O)CO)O2)CC1 (stereo partly drawn) [Example 57, 16,17-[(1-Methylpiperidyl-4-methylene)bis(oxy)]-9-fluoro-11,21-dihydroxypregna-1,4-diene-3,20-dione[11β,16α]] |  | > 1 | > 1 | Not active |  | 
C[C@]12C=CC(=O)C=C1CC[C@@H]1[C@@H]2[C@@H](O)C[C@@]2(C)[C@H]1C[C@H]1O[C@@H](C3CCCCC3)O[C@]12C(=O)CO [Example 22, 16,17-[(Cyclohexylmethylene)bis(oxy)]-11,21-dihydroxypregna-1,4-diene-3,20-dione[11β,16α(R)]] |  | 0.0021 | 0.0015 |  | 0.012 | 
C[C@]12C=CC(=O)C=C1CC[C@H]1[C@@H]3C[C@H]4OC(c5cccnc5)O[C@@]4(C(=O)CO)[C@@]3(C)C[C@H](O)[C@@]12F (stereo partly shown) [Example 62] | potent | 0.35 |  |  |  | Steroid 14 Concentration (alkaline phosphatase; mutual prodrug 17 + alkaline phosphatase, 2.10 Hours @ 37° C.): 22.6 nmol/mL; IC50 [1, 3]: 0.0019 µM; IC50 (TNF-α): 0.011 µM
C[C@]12C=CC(=O)C=C1CC[C@H]1[C@@H]3C[C@H]4OC(c5cccnc5)O[C@@]4(C(=O)CO)[C@@]3(C)C[C@H](O)[C@@]12F (single isomer, unassigned) [Example 22R-epimer] |  |  |  |  |  | IC50 [1, 3]: 0.00089 µM; IC50 (TNF-α): 0.012 µM
C[C@]12C=CC(=O)C=C1CC[C@H]1[C@@H]3C[C@H]4O[C@@H](C5CCCCC5)O[C@@]4(C(=O)CN4CCC4)[C@@]3(C)C[C@H](O)[C@@]12F [Example 43, 16,17-[(Cyclohexylmethylene)bis(oxy)]-9-fluoro-11-hydroxy-21-(azetidin-1-yl)-pregna-1,4-diene-3,20-dione[11β,16α(R)]] | potent |  | 0.0088 |  | > 1 | 
C[C@]12C=CC(=O)C=C1CC[C@H]1[C@@H]3C[C@H]4O[C@@H](C5CCCCC5)O[C@@]4(C(=O)CO)[C@@]3(C)C[C@H](O)[C@@]12F [Example 23, 16,17-[(Cyclohexylmethylene)bis(oxy)]-9-fluoro-11,21-dihydroxypregna-1,4-diene-3,20-dione[11β,16α(R)]] | potent |  | 0.00034 |  | 0.0012 | 
C[C@]12C=CC(=O)C=C1CC[C@H]1[C@@H]3C[C@H]4O[C@@H](C5CCCCC5)O[C@@]4(C(=O)CSc4ccncc4)[C@@]3(C)C[C@H](O)[C@@]12F [Example 47, 16,17-[(Cyclohexylmethylene)bis(oxy)]-9-fluoro-11-hydroxy-21-(pyridin-4-yl-thio)-pregna-1,4-diene-3,20-dione[11β,16α(R)]] |  |  | 0.066 | Not active |  | 
OCc1cc(C(O)CNCCCCCCOCCCCc2ccccc2)ccc1O (stereo not shown) [Salmeterol, salmeterol, reference compound] |  |  |  |  |  | Salmeterol Concentration (alkaline phosphatase; 0.00 Hours @ 37° C.): 0.1 nmol/mL; Salmeterol Concentration (alkaline phosphatase; 0.59 Hours @ 37° C.): 1.8 nmol/mL; Salmeterol Concentration (alkaline phosphatase; 1.19 Hours @ 37° C.): 4.4 nmol/mL; Salmeterol Concentration (alkaline phosphatase; 2.96 Hours @ 37° C.): 12.3 nmol/mL; Salmeterol Concentration (alkaline phosphatase; 3.56 Hours @ 37° C.): 14.4 nmol/mL; Salmeterol Concentration (alkaline phosphatase; 4.15 Hours @ 37° C.): 17.1 nmol/mL; Salmeterol Concentration (alkaline phosphatase; 10.67 Hours @ 37° C.): 34.2 nmol/mL; Salmeterol Concentration (alkaline phosphatase; 15.41 Hours @ 37° C.): 41.4 nmol/mL; Salmeterol Concentration (alkaline phosphatase; 19.56 Hours @ 37° C.): 44.8 nmol/mL; Salmeterol Concentration (alkaline phosphatase; 24.30 Hours @ 37° C.): 46.9 nmol/mL; Salmeterol Concentration (alkaline phosphatase; 30.82 Hours @ 37° C.): 48.1 nmol/mL; Salmeterol Concentration (alkaline phosphatase; 34.97 Hours @ 37° C.): 49.6 nmol/mL
CN1CCC(C2O[C@@H]3C[C@H]4[C@@H]5CCC6=CC(=O)C=C[C@]6(C)[C@H]5[C@@H](O)C[C@]4(C)[C@]3(C(=O)CO)O2)CC1 (stereo partly drawn) [Example 56, 16,17-[(1-Methylpiperidyl-4-methylene)bis(oxy)]-11,21-dihydroxypregna-1,4-diene-3,20-dione[11β,16α]] |  | > 1 |  | Not active |  | Immunosuppresion IC50 ([1]; mouse splenic lymphocytes, 72 h/37° C., [3H]TMD incorporation): Not active
C[C@]12C=CC(=O)C=C1CC[C@H]1[C@@H]3C[C@H]4OC(c5cccnc5)O[C@@]4(C(=O)CO)[C@@]3(C)C[C@H](O)[C@@]12F (single isomer, unassigned) [Example 22S-epimer] |  |  |  |  |  | IC50 [1, 3]: 0.036 µM; IC50 (TNF-α): > 1 µM
C[C@]12C=CC(=O)C=C1CC[C@H]1[C@@H]3C[C@H]4O[C@@H](C5CCCCC5)O[C@@]4(C(=O)CN4CCOCC4)[C@@]3(C)C[C@H](O)[C@@]12F [Example 34, 16,17-[(Cyclohexylmethylene)bis(oxy)]-9-fluoro-11-hydroxy-21-(4-morpholin-1-yl)-pregna-1,4-diene-3,20-dione[11β,16α(R)]] |  |  | 0.02 |  | > 1 | 
